Columns and labels:
[1] = test system: human PBMCs; experiment: Human allogeneic mixed lymphocyte reaction (MLR), [3H] thymidine incorporation, 1-day pretreatment; assay type: cell-based
Experimental: To select an analogue with potential anti-inflammatory activity, the effects of six of our unique synthetic sphingolipid analogues (all chemical structures can be found in Supplementary Figure 1A) on human immune cell activation were examined. Human PBMCs were cultured with the compounds for 1 day at different concentrations. The cells were then activated by PBMCs from a different donor in a mixed lymphocyte reaction (MLR) experiment. […] The amine derivative, AD2900, is substituted with amino diols. Structurally, AD2900 has a hydroxymethyl group on carbon 2 and no phenyl substitution. These characteristics cause AD2900 to be more hydrophilic than other analogues. In addition, previous studies have shown that AD2900 has a higher lethal dose 50% (LD50), which is above 100 mg/kg, and it is stable at room temperature for at least 2 years (unpublished data). Based on these characteristics, AD2900 was selected for further investigation. […]
(§1) Human PBLs were collected from human whole blood collected from healthy donors. […] For the thymidine incorporation assay, after 4 days of co-culture, cells were pulsed with ^3H-thymidine at 1 μCi (0.037MBq) per well (PerkinElmer, MA, USA) for 16 additional hours and then harvested onto glass-fiber filters. ^3H-thymidine incorporation was measured using Top Count. […]

[2] = test system: activated PBMCs; experiment: Apoptosis of activated PBMCs, AnnexinV-PI FACS after MLR; assay type: cell-based, human; settings: 1-day pretreatment, 5 days of MLR
Experimental: Figure 1 AD2900 inhibits human lymphocyte proliferation in allogeneic activation (A, B) The levels of proliferative response of human peripheral blood lymphocytes (PBMCs) after 1-day pretreatment with different concentrations of AD2900, AD2750, YZ138, YZ158, and YZ297 (A) or AD2900, FTY720, and SEW2871 (B) were tested by human allogeneic mixed lymphocyte reaction (MLR) assay, followed by a [3H] thymidine incorporation analysis. (C) Apoptosis of AD2900-treated activated PBMCs was tested by AnnexinV-propidium iodide (PI) FACS analysis following 1-day AD2900 pretreatment and MLR. All the samples were compared to the untreated PBMC control. (D) IFN-γ secretion from activated PBMCs was tested by ELISA following a 1-day AD2900 pretreatment in MLR. On the 5th day of hMLR, supernatants were collected and assayed for the level of IFN-γ. (E) Jurkat cell viability after a 1-day treatment with different concentrations of AD2900, FTY720, and SEW2871 was tested by XTT viability assay. […]
as §1

[3] = test system: non-activated PBMCs; experiment: Proliferation of non-activated PBMCs, [3H] thymidine; assay type: cell-based, human; settings: different concentrations

CCCCCCCCCCCCCCCCNC(CO)(CO)CO [AD2900]
inhibitory effect on lymphocyte activation compared to FTY720 and SEW2817 ([1]; 1-day pretreatment prior to MLR, concentrations of 6–20 μM): compromised effect in comparison to FTY720 but a higher inhibitory effect than that with SEW2817 | inhibition of PBMC proliferation ([1]; 1-day pretreatment, MLR, mean of up to, at the highest concentration): 76% ± 4% | concentrations at which apoptosis was induced on activated PBMCs [2]: above 10 μM | influence on the proliferation of non-activated PBMCs [3]: no significant differences

Source: PMC5581131, “The novel sphingosine-1-phosphate receptors antagonist AD2900 affects lymphocyte activation and inhibits T-cell entry into the lymph nodes” (Oncotarget, 2017)
